Laboratory results published in patent US20220339135A1, “COMPOSITIONS AND METHODS FOR MODULATING AN INFLAMMATORY RESPONSE” (Enzychem Lifesciences Corporation, priority 2019, published 2022).
Entries after “also recorded” stand apart in the source; their conditions may differ.

Legend:
[1] = test system: RIPK1, RIPK3, MLKL in THP-1 cells; test: MSU-induced phosphorylation of RIPK1, RIPK3, MLKL, western blot; type: cell-based, human
Experimental: (A) THP-1 cells were pre-incubated with PLAG (100 μg/mL) for an hour and then stimulated with MSU crystal (400 μg/mL). After 0, 7, 15, 30, 60 minutes, cells were harvested. (B) THP-1 cells were pre-incubated with PLAG (1, 10, 100 μg/mL) for 1 hour and then stimulated with MSU crystal (400 μg/mL). After 1 h, cells were harvested. THP-1 cells were lysis with 1×RIPA lysis buffer containing the protease inhibitor (Roche, Basel, Switzerland) and phosphatase inhibitor (Thermo Scientific, MA, USA) on ice for 30 min. The cell lysates were clarified by centrifugation (13,000 rpm, 4° C., 30 min), and the protein quantity from each sample was examined by Bradford assay (Bio-Rad). Proteins from each sample were separated by sodium dodecyl sulfate-polyacrylamide gel electrophoresis on 12% polyacrylamide gels and the proteins were blotted onto a PVDF membrane (Millipore Corporation, Germany). The membrane was blocked with 5% non-fat dried milk (BD bioscience) in PBS containing 0.05% Tween-20 (Calbiochem) for 1 hour. The membrane was incubated with anti-phospho-RIPK3 (abcam), RIPK3 (novusbio), p-MLKL (abcam), MLKL (Sigma), p-RIP (Cell Signaling Technology), RIPK1 (R&D System) and β-actin (Cell Signaling Technology) at 4° C. overnight. […] Target proteins were detected with Immobilon Western Chemiluminescent HRP Substrate (Millipore Corporation).

[2] = test system: lysosomal activity in THP-1 cells; test: MSU-induced lysosomal activity; type: cell-based, human; details: MSU/PLAG treated cells
Experimental: THP-1 cells were divided into two groups: 1) MSU treated group and 2) MSU/PLAG treated group. For MSU treated group, THP-1 cells were stimulated with monosodium urate (MSU) crystal (400 μg/ml) for 0, 10, 20, 30, 40, 50, 60 minutes. For MSU/PLAG treated group, THP-1 cells were pre-incubated with PLAG (100 μg/ml) for an hour and then stimulated with monosodium urate (MSU) crystal (400 μg/ml) for 0, 10, 20, 30, 40, 50, 60 minutes. Then, cells were harvested. (A) To detect for the P2Y6 receptor on the membrane surface, cells were fixed with 4% paraformaldehyde (Sigma-Aldrich) and incubated with PBS containing 1% BSA for blocking. They were labeled with the rabbit anti-P2Y6 receptor antibody (1:200, APR-011, Alomone Labs, Jerusalem, Israel) for 1 h. The detection Ab was used with Alexa Flour 488 goat anti-rabbit IgG (Invitrogen). (B) To detect lysosomal activity, THP-1 cells were stained with Texas red conjugated-LYSO-ID® Lysosomal Detection Kit (Enzo Life Sciences, Inc.). Finally, cells were washed with 1% FBS/PBS and mounted with DAPI-containing fluorescence microscopy mounting medium (Invitrogen). Confocal samples were analyzed with a laser scanning confocal microscope (Carl Zeiss, Oberkochen, Germany). For flow cytometric analysis, cells were washed and analyzed with a FACSVerse flow cytometer (BD Biosciences). FlowJo software (Tree Star, OR, USA) was used data processing.

[3] = test system: PAK in LPL or GPIHBP-1 silenced cells; test: In vitro phagocytosis assay in LPL or GPIHBP-1 silenced cells; type: cell-based; details: 1 h after infection
Experimental: For immunofluorescence-based measurement of phagocytosis and clearance, BMDMs were grown on glass coverslips in 24-well plates. The cells were infected with PAK (MOI, 50) for different time intervals and then were treated with 10 μg/ml gentamycin for 30 minutes to remove extracellular PAK attached to the cell surface. The infected cells were washed with ice-cold PBS several times, followed by fixing for 10 minutes at room temperature in methanol or 10% paraformaldehyde. The cells were stained with anti-Pseudomonas antibody (Abcam) and then were incubated with goat anti-rabbit IgG secondary antibody conjugated with Alexa Fluor 488. […]
For measurement of phagocytosis by flow cytometry, PAK was heat-killed and stained with 10 μM of SYTO9 (Thermo Scientific™) at room temperature for 30 minutes and then was extensively washed with ice-cold PBS several times. The staining dose of PAK was determined by flow cytometry. […] The fluorescence of extracellular PAK attached to the cell surface was quenched by replacing the medium with PBS containing 0.2% trypan blue.
For CFU counting-based phagocytosis and bacterial killing assay, PAK was cultured at 37° C. overnight with continuous shaking and was resuspended in PBS. […] The diluted aliquots were spread on LB agar plates, and CFU was counted after incubation of the plates overnight at 37° C.

[4] = test system: Rac1, p47phox in BMDMs and THP-1 cells; test: Rac1 membrane translocation and p47phox phosphorylation; type: cell-based
Experimental: Total cells were lysed on ice for 30 minutes in RIPA buffer composed of 50 mM Tris-HCl (pH 7.4), 150 mM NaCl, 2 mM EDTA, 1% NP-40, 0.5% sodium deoxycholate, 0.1% SDS, 1 mM phenylmethylsulfonyl fluoride (PMSF), 10 mM sodium fluoride, 2 mM sodium pyrophosphate, 10 mM β-glycerophosphate, 10 mM sodium orthovanadate. Membrane-and-cytoplasmic protein fractions of cultured cells were obtained with Mem-PER Plus Membrane Protein Extraction Kit (Thermo Scientific, MA, USA) according to the manufacturer's instructions. The lysates were centrifuged at 13,000 rpm for 20 minutes at 4° C. and protein concentrations were determined using the Bradford assay (Bio-Rad Laboratories). Denatured samples were mixed with a 5×SDS-PAGE loading buffer and heated to 100° C. for 15 min. The samples were separated on the 10% of SDS-PAGE gel and transferred to polyvinylidene difluoride (PVDF) membranes (Merck Millipore Corporation, MA, USA). Membranes were blocked with 5% non-fat milk in PBS (10 mM Tris-HCl, pH7.5, 150 mM NaCl) for 1 h and probed with primary antibodies against ERK1/2, phospho-ERK1/2, P38, phospho-P38, SAPK/JNK, phospho-SAPK/JNK, Na, K-ATPase, α-Tubulin, and β-actin from Cell Signaling Technology (MA, USA), Rac1 from Merck Millipore Corporation), p47phox and phospho-p47phox from Invitrogen, adenosine receptor A1 from Abcam, β arrestin-1 from Santa Cruz Technology for overnight at 4° C. […]

## CCCCC/C=C\C/C=C\CCCCCCCC(=O)OC(COC(C)=O)COC(=O)CCCCCCCCCCCCCCC (racemic) [PLAG, 1-palmitoyl-2-linoleoyl-3-acetylglycerol]
[1]; PLAG 100 μg/mL, time course
  MSU-induced phosphorylation of RIPK3 and MLKL: accelerated
[1]; PLAG 1, 10, 100 μg/mL, dose-dependent
  MSU-induced phosphorylation of RIPK1 and RIPK3: modulated
[2]
  lysosomal activity detected: about 10 minutes
  lysosomal activity returned: about 30 minutes
[3]
  PLAG effect on enhanced bacterial phagocytosis in silenced cells: enhances neither phagocytosis nor bacterial killing; also recorded: abrogated
[4]; dose-dependent
  gemcitabine-induced p47phox phosphorylation: effectively inhibited
[4]; gemcitabine-stimulated THP-1 cells
  translocation of Rac1 from the cytosol to the membrane: significantly inhibited
